Assay results: patent publication US10752626B2, “Iso-citrate dehydrogenase (IDH) inhibitor” (SHANGHAI METON PHARMACEUTICAL CO., LTD, priority 2016, dated 2020)

Columns and labels:
[1] = molecular target: IDH1 R132C (Homo sapiens (Human), UniProt O75874, R132C); test: Biochemical assay for inhibition of mutant IDH1 R132C; conditions: tested in triplet
Description: The present disclosure provides a biochemical assay method for detecting the IDH inhibition and selectivity of the compounds by detecting IDH enzyme activity directly.
Wild-type IDH enzyme could convert NADP^+ to NADPH when it catalyzes the α-KG producing reaction. Mutant IDH enzyme could convert NADPH to NADP^+ when it catalyzes the D-2-HG producing reaction. So the activity of wild-type and mutant IDH1/2 could be measured by monitoring NADPH level change: in the reaction catalyzed by wild-type IDH1/2, the newly generated NADPH is utilized instantly by coupled diaphorase-resazurin reaction to generate resorufin which is fluorescent (at Excitation 544 nm, Emission 590 nm) and thus NADPH is monitored indirectly; while in the reaction catalyzed by mutant IDH1/2, NADPH is directly monitored as it is fluorescent (at Excitation 340 nm, Emission 460 nm). By monitoring the change of NADPH level in the reaction, the enzyme activity could be determined rapidly and efficiently, IC50 of a compound could also be assayed.
The test compounds were prepared into 50 mM stock solutions in DMSO and stored at −20° C. Each test compound stock was further diluted to obtain a 100× stock solution at a concentration of 200 μM, 100 μM, 50 μM, 25 μM, 12.5 jμM, 6.25 μM and 3.125 μM, respectively, for the final use on the day of test.
Inhibition of Mutant IDHJ (R132H or R132C):
Solution A was prepared by combining 1 M Tris-HCl pH7.5 (300 μL), 5 M NaCl (450 μL), 1 M MgCl2 (150 μL), 1 M DTT (15 μL), 20 mg/mL BSA (37.5 μL), 20 mM NADPH (20 μL), and 0.5 mM α-KG (40 μL), followed by adding deionized water to a final volume of 15 mL.
Reaction buffer was prepared by combining 1 M Tris-HCl pH 7.5 (200 μL), 5 M NaCl (300 μL), 1 M MgCl2 (100 μL), 1 M DTT (10 μL) and 20 mg/mL BSA (25 μL), followed by adding deionized water to a final volume of 10 mL.
Solution B was prepared by combining the reaction buffer (5 mL) and […] IDH1-R132H (5.21 μL) or 107 μM IDH1-R132C (4.67 μL).
148 μL Solution A was added into each sample well of a 96-well plate P1, and then 2 μL of the test compound solution at each concentration and 2 μL of DMSO (negative control/blank) were added into individual sample well respectively. 50 μL of Solution B was added into each of the sample wells having test compounds and one sample well having DMSO only, and 50 μL of reaction buffer was added into another sample well having DMSO only, respectively. P1 was put into BioTek Synergy H4 Microplate reader (BioTek Instruments Inc., Winooski, U.S.), and the program was set as follows: 37° C., shake plate 5 seconds, run kinetic mode, total detection time 20 min, detection intervals 40 seconds, detection mode fluorescence (at Excitation 340 nm, Emission 460 nm). The data were exported, the relative enzyme activity and the half-maximal inhibitory concentration (IC50) for the test compound were calculated. Relative enzyme activity was calculated as the absolute value of the slope of the Emission 460 reads of each well plotted against time (which represents the conversion rate of ca-KG to 2-HG through IDH1 modulated utilization of NADPH). The Dose-response curve was drawn and the IC50 was calculated via fitting. The IDH inhibition and selectivity of each test compound can be evaluated according to the effect of the compounds on the IDH enzyme activity.
The IDH inhibition activity of the compounds were assessed according to Test 5 of the Biological evaluation section. The test for mutant IDH1 R132H/R132C inhibition of each compound was carried out in triplet. For IDH1 R132H, the enzyme activity of exemplary Compounds 16, 21, 22, 23, 24 and 31 is plotted as a function of logarithm of the concentration of the compound in FIGS. 8A-8C, 9A-9C, 10A-10C, 11A-11C, 12A-12C and 13A-13C, respectively. […]

[2] = Metabolic stability in dog liver microsome; conditions: for K: Mean; for microsomal CLint at 1 μM / half-life at 1 μM: microsomes, pH 7.4
Protocol: The liver microsomes of mouse, rat, dog, monkey and human were purchased from Corning Inc., and were stored at −60° C. prior to use. The acetonitrile and NADPH were purchased from Honeywell International Inc. (New Jersey, U.S.) and Roche Inc. (Basel, Swiss).
Reactions were initiated by adding NADPH to a final concentration of 1 mM. The final volume of each reaction mixture was 0.2 ml, and all reactions were performed in duplicate. At each set time point (0, 5, 15, 30 and 60 min), a small aliquot (e.g., 20 μl) was transferred from the reaction system into ice-cold internal standard (IS) containing acetonitrile to quench the reaction and to precipitate the protein. After vortex and centrifuge at 3700 rpm for 10 min, the supernatant was injected into LC-MS/MS for analysis.
In vitro microsomal clearance was estimated based on determination of elimination half-life (T1/2) of compounds disappearance from their initial concentrations. Peak area ratios of each compound (test or control) to IS was calculated. Ln (% Control) versus Incubation Time (min) curve was plotted, and the slope of a linear fitting line was calculated. Drug elimination rate constant k (min^−1), T1/2 (min), and in vitro intrinsic clearance CLint (mL·min^−1·mg^−1 proteins) was calculated according to the following equations: k=−slope T1/2=0.693/k CLint=k/Cprotein where Cprotein (mg·mL^−1) is the microsomal protein concentration in the incubation system. Test 3: Metabolic Stability Assay in Mouse Plasma
In this study, the metabolic stability of the compounds was assessed in mouse, rat, dog, monkey and human liver microsome according to the method disclosed in Test 2 of the Biological evaluation section.

Chain of IDH1 R132C (O75874 whole entry R132C): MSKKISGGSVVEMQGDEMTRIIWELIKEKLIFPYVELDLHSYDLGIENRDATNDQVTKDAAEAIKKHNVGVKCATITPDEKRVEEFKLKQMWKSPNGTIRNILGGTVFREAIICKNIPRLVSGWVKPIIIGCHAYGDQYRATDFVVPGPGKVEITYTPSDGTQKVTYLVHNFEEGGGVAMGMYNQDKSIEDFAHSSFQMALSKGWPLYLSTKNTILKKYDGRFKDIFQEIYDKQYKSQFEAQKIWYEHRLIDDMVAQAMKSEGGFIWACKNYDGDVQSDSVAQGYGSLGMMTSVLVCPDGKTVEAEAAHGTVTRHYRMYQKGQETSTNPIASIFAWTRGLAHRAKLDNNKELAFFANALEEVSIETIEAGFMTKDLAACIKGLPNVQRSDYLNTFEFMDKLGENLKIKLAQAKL

Compound | IC50 [1] [µM] | also measured
C[C@H](Nc1nccc2c1CN(Cc1ccccc1)C2=O)c1ccccc1 [Compound 6, (S)-2-benzyl-4-(1-phenylethylamino)-2,3-dihydro-1H-pyrrolo[3,4-c]pyridin-1-one] | 10 to 15 | –
COc1ccc(CN2Cc3c(ccnc3N[C@@H](C)c3ccccc3)C2=O)cc1 [Compound 7, (S)-2-(4-methoxybenzyl)-4-(1-phenylethylamino)-2,3-dihydro-1H-pyrrolo[3,4-c]pyridin-1-one] | 10 to 15 | –
CCN1Cc2c(ccnc2N[C@@H](C)c2ccc(Oc3ccc(OC)cc3)cc2)C1=O [Compound 19, (S)-2-ethyl-4-(1-(4-(4-methoxyphenoxy)phenyl)ethylamino)-2,3-dihydro-1H-pyrrolo[3,4-c]pyridin-1-one] | ≤ 1.5 | –
CCN1Cc2c(ccnc2N[C@@H](C)c2ccc(F)cc2)C1=O [Compound 2, (S)-2-ethyl-4-(1-(4-fluorophenyl)ethylamino)-2,3-dihydro-1H-pyrrolo[3,4-c]pyridin-1-one] | 10 to 15 | –
CCN1Cc2c(ccnc2N[C@@H](C)c2ccc(C)cc2)C1=O [Compound 3, (S)-2-ethyl-4-(1-p-tolylethylamino)-2,3-dihydro-1H-pyrrolo[3,4-c]pyridin-1-one] | 10 to 15 | –
CC(C)N1Cc2c(ccnc2N[C@@H](C)c2ccccc2)C1=O [Compound 8, (S)-2-isopropyl-4-(1-phenylethylamino)-2,3-dihydro-1H-pyrrolo[3,4-c]pyridin-1-one] | 10 to 15 | –
CCN1Cc2c(ccnc2N[C@@H](C)c2ccccc2)C1=O [Compound 10, (S)-2-ethyl-4-(1-phenylethylamino)-2,3-dihydro-1H-pyrrolo[3,4-c]pyridin-1-one] | 10 to 15 | –
CCN1Cc2c(ccnc2N[C@@H](C)c2ccc(Br)cc2)C1=O [Compound 1, (S)-4-(1-(4-bromophenyl)ethylamino)-2-ethyl-2,3-dihydro-1H-pyrrolo[3,4-c]pyridin-1-one] | 10 to 15 | –
CCN1Cc2c(ccnc2N[C@@H](C)c2ccc(Oc3ccccc3)cc2)C1=O [Compound 18, (S)-2-ethyl-4-(1-(4-phenoxyphenyl)ethylamino)-2,3-dihydro-1H-pyrrolo[3,4-c]pyridin-1-one] | ≤ 1.5 | –
CCN1Cc2c(ccnc2N[C@@H](C)c2ccc(-c3cn(C)nn3)cc2)C1=O [Compound 14, (S)-2-ethyl-4-(1-(4-(1-methyl-1H-1,2,3-triazol-4-yl)phenyl)ethylamino)-2,3-dihydro-1H-pyrrolo[3,4-c]pyridin-1-one] | 10 to 15 | –
Cc1ncc2n1-c1ccc(Cl)cc1C(c1ccccc1F)=NC2 [Positive control, Midazolam, reference compound] | – | K ([2]; dog liver microsome): 0.140 min⁻¹; microsomal CLint at 1 μM ([2]; dog): 702 µL/min/mg; K ([2]; human liver microsome): 0.0612 min⁻¹; half-life at 1 μM ([2]; human): 11.3 min; microsomal CLint at 1 μM ([2]; human): 306 µL/min/mg; K ([2]; monkey liver microsome): 0.211 min⁻¹; half-life at 1 μM ([2]; monkey): 3.29 min; microsomal CLint at 1 μM ([2]; monkey): 1050 µL/min/mg; K ([2]; mouse liver microsome): 0.0964 min⁻¹; half-life at 1 μM ([2]; mouse): 7.19 min; microsomal CLint at 1 μM ([2]; mouse): 482 µL/min/mg; K ([2]; rat liver microsome): 0.174 min⁻¹; half-life at 1 μM ([2]; rat): 3.98 min; microsomal CLint at 1 μM ([2]; rat): 871 µL/min/mg
CCN1Cc2c(ccnc2N[C@@H](C)c2ccc(Oc3ccccc3C)cc2)C1=O [Compound 17, (S)-2-ethyl-4-(1-(4-(o-tolyloxy)phenyl)ethylamino)-2,3-dihydro-1H-pyrrolo [3,4-c]pyridin-1-one] | ≤ 1.5 | –
CCOC(=O)c1ccc([C@H](C)Nc2nccc3c2CN(CC)C3=O)cc1 [Compound 12, (S)-ethyl-4-(1-(2-ethyl-1-oxo-2,3-dihydro-1H-pyrrolo[3,4-c]pyridin-4-ylamino)ethyl)benzoate] | 10 to 15 | –
CCN1Cc2c(ccnc2N[C@@H](C)c2ccc(Oc3ccc(F)cc3)cc2)C1=O [Compound 20, (S)-2-ethyl-4-(1-(4-(4-fluorophenoxy)phenyl)ethylamino)-2,3-dihydro-1H-pyrrolo[3,4-c]pyridin-1-one] | 1.5 to 10 | –
COCCN1Cc2c(ccnc2N[C@@H](C)c2ccccc2)C1=O [Compound 9, (S)-2-(2-methoxyethyl)-4-(1-phenylethylamino)-2,3-dihydro-1H-pyrrolo[3,4-c]pyridin-1-one] | 10 to 15 | –
CCN1Cc2c(ccnc2N[C@@H](C)c2ccc(Oc3cccc(C)c3)cc2)C1=O [Compound 15, (S)-2-ethyl-4-((1-(4-(m-tolyloxy)phenyl)ethyl)amino)-2,3-dihydro-1H-pyrrolo[3,4-c]pyridin-1-one] | ≤ 1.5 | –
CCN1Cc2c(ccnc2N[C@@H](C)c2ccc(C(=O)Nc3ccccc3)cc2)C1=O [Compound 13, (S)-4-(1-(2-ethyl-1-oxo-2,3-dihydro-1H-pyrrolo[3,4-c]pyridin-4-ylamino)ethyl)-N-phenylbenzamide] | 10 to 15 | –
CCCCN1Cc2c(ccnc2N[C@@H](C)c2ccccc2)C1=O [Compound 5, (S)-2-butyl-4-(1-phenylethylamino)-2,3-dihydro-1H-pyrrolo[3,4-c]pyridin-1-one] | 10 to 15 | –
C[C@H](Nc1nccc2c1CN(C1CC1)C2=O)c1ccccc1 [Compound 4, (S)-2-cyclopropyl-4-(1-phenylethylamino)-2,3-dihydro-1H-pyrrolo[3,4-c]pyridin-1-one] | 10 to 15 | –
CCN1Cc2c(ccnc2N[C@@H](C)c2ccc(OC)cc2)C1=O [Compound 11, (S)-2-ethyl-4-(1-(4-methoxyphenyl)ethylamino)-2,3-dihydro-1H-pyrrolo[3,4-c]pyridin-1-one] | 10 to 15 | –
